Activity calls are given as the source filed them. No cut-off for these calls is given here.
Legend:
Acetylcholinesterase [1] = biological target: Acetylcholinesterase (Homo sapiens, UniProt P22303)
Description: Inhibition of human recombinant AChE using acetylthiocholine iodide as substrate preincubated for 5 mins followed by substrate addition and measured over 2 mins by UV-Vis spectrophotometric analysis based Ellman's method

[2] = pampa, pH 7.4, 100 µM
Description: Effective permeability of the compound in PBS buffer at pH 7.4 at 100 uM after 3 to 6 hrs by PAMPA

Cholinesterase = Cholinesterase (Homo sapiens, UniProt P06276)
Description: Inhibition of human recombinant BChE using butyrylthiocholine iodide as substrate preincubated for 5 mins followed by substrate addition and measured over 2 mins by UV-Vis spectrophotometric analysis based Ellman's method

CHO-K1 = test: cells; details: Cricetulus griseus, CHO-K1, 24 h
Description: Cytotoxicity against CHOK1 cells assessed as reduction in cell viability incubated for 24 hrs by MTT assay

Nitric oxide synthase 1 = Nitric oxide synthase 1 (Rattus norvegicus, UniProt P29476)
Description: Inhibition of nNOS in Wistar rat cortical homogenates incubated for 30 mins

HepG2 = test: cells; details: Homo sapiens, HepG2, 24 h
Description: Cytotoxicity against human HepG2 cells assessed as reduction in cell viability incubated for 24 hrs by MTT assay

[3] = Toxicity in Wistar rat assessed as induction of partial piloerection at 70 mg/kg, ip measured during first 2 hrs then periodically for 48 hrs; format: organism-based; details: in vivo
[4] = Toxicity in Wistar rat assessed as effect on distance moved at 100 nM, icv by Morris water maze assay; details: in vivo, icv_or_intrathecal, 0.1 µM
[5] = Toxicity in Wistar rat assessed as induction of persistent oculonasal discharge at 70 mg/kg, ip measured during first 2 hrs then periodically for 48 hrs; format: organism-based; details: in vivo
Acetylcholinesterase [6] = biological target: Acetylcholinesterase (Electrophorus electricus, UniProt O42275); test: Displacement of propidium iodide from peripheral binding site of electric eel AChE assessed as dissociation constant at 8 to 56 uM by spectrofluorometry based Taylor and Lappi method
Rattus norvegicus [7] = test: Antialzhemeric activity in Wistar rat model of scopolamine-induced cognition deficit assessed as effect on escape latency at 100 nM, icv dosed 60 mins prior to training trial by Morris water maze test; format: functional, organism-based
Rattus norvegicus [8] = test: Antialzhemeric activity in Wistar rat model of scopolamine-induced cognition deficit assessed as effect on average distance from platform at 100 nM, icv dosed 60 mins prior to training trial by Morris water maze test; format: functional, organism-based
Rattus norvegicus [9] = test: Antialzhemeric activity in icv dosed Wistar rat model of scopolamine-induced cognition deficit assessed as effect on escape latency dosed 60 mins prior to training trial by Morris water maze test; format: functional, organism-based
[10] = Toxicity in Wistar rat assessed as induction of salivation at 100 nM, icv by Morris water maze assay; details: in vivo, icv_or_intrathecal, 0.1 µM
Rattus norvegicus [11] = test: Antialzhemeric activity in Wistar rat model of scopolamine-induced cognition deficit assessed as effect on distance moved at 100 nM, icv dosed 60 mins prior to training trial by Morris water maze test; format: functional, organism-based
[12] = Toxicity in Wistar rat assessed as induction of intermittent tremors and prostration at 70 mg/kg, ip measured during first 2 hrs then periodically for 48 hrs; format: organism-based; details: in vivo
Rattus norvegicus [13] = test: Antialzhemeric activity in Wistar rat model of scopolamine-induced cognition deficit assessed as effect on average distance from platform at 10 nM, icv dosed 60 mins prior to training trial by Morris water maze test; format: functional, organism-based
[14] = Toxicity in ip dosed Wistar rat assessed as maximum tolerated dose measured during first 2 hrs then periodically for 48 hrs; format: organism-based; details: in vivo
[15] = Toxicity in Wistar rat assessed as effect on escape latency at 100 nM, icv by Morris water maze assay; details: in vivo, icv_or_intrathecal, 0.1 µM
[16] = Toxicity in Wistar rat assessed as change in body weight weight at 70 mg/kg, ip after 24 and 48 hrs; format: organism-based; details: in vivo
Rattus norvegicus [17] = test: Antialzhemeric activity in icv dosed Wistar rat model of scopolamine-induced cognition deficit assessed as effect on distance moved dosed 60 mins prior to training trial by Morris water maze test; format: functional, organism-based
Rattus norvegicus [18] = test: Antialzhemeric activity in Wistar rat model of scopolamine-induced cognition deficit assessed as effect on time in target sector at 100 nM, icv dosed 60 mins prior to training trial by Morris water maze test; format: functional, organism-based
Rattus norvegicus [19] = test: Antialzhemeric activity in Wistar rat model of scopolamine-induced cognition deficit assessed as effect on time in target sector at 10 nM, icv dosed 60 mins prior to training trial by Morris water maze test; format: functional, organism-based
Rattus norvegicus [20] = test: Antialzhemeric activity in icv dosed Wistar rat model of scopolamine-induced cognition deficit assessed as effect on time in target sector dosed 60 mins prior to training trial by Morris water maze test; format: functional, organism-based
[21] = Toxicity in Wistar rat assessed as induction of tremors at 100 nM, icv by Morris water maze assay; details: in vivo, icv_or_intrathecal, 0.1 µM
Rattus norvegicus [22] = test: Antialzhemeric activity in icv dosed Wistar rat model of scopolamine-induced cognition deficit assessed as effect on average distance from platform dosed 60 mins prior to training trial by Morris water maze test; format: functional, organism-based
Rattus norvegicus [23] = test: Antialzhemeric activity in Wistar rat model of scopolamine-induced cognition deficit assessed as effect on escape latency at 10 nM, icv dosed 60 mins prior to training trial by Morris water maze test; format: functional, organism-based
[24] = Toxicity in Wistar rat assessed as induction of intermittent abnormal breathing pattern at 70 mg/kg, ip measured during first 2 hrs then periodically for 48 hrs; format: organism-based; details: in vivo
[25] = Toxicity in Wistar rat assessed as effect on average distance from platform at 100 nM, icv by Morris water maze assay; details: in vivo, icv_or_intrathecal, 0.1 µM
[26] = Toxicity in Wistar rat assessed as effect on time spent in the target sector at 100 nM, icv by Morris water maze assay; details: in vivo, icv_or_intrathecal, 0.1 µM
[27] = Toxicity in Wistar rat assessed as induction of diminishing spontaneously and prostration at 70 mg/kg, ip measured during first 2 hrs; format: organism-based; details: in vivo
Rattus norvegicus [28] = test: Antialzhemeric activity in Wistar rat model of scopolamine-induced cognition deficit assessed as effect on distance moved at 10 nM, icv dosed 60 mins prior to training trial by Morris water maze test; format: functional, organism-based

Sequence of Nitric oxide synthase 1 (P29476 whole entry, looked up): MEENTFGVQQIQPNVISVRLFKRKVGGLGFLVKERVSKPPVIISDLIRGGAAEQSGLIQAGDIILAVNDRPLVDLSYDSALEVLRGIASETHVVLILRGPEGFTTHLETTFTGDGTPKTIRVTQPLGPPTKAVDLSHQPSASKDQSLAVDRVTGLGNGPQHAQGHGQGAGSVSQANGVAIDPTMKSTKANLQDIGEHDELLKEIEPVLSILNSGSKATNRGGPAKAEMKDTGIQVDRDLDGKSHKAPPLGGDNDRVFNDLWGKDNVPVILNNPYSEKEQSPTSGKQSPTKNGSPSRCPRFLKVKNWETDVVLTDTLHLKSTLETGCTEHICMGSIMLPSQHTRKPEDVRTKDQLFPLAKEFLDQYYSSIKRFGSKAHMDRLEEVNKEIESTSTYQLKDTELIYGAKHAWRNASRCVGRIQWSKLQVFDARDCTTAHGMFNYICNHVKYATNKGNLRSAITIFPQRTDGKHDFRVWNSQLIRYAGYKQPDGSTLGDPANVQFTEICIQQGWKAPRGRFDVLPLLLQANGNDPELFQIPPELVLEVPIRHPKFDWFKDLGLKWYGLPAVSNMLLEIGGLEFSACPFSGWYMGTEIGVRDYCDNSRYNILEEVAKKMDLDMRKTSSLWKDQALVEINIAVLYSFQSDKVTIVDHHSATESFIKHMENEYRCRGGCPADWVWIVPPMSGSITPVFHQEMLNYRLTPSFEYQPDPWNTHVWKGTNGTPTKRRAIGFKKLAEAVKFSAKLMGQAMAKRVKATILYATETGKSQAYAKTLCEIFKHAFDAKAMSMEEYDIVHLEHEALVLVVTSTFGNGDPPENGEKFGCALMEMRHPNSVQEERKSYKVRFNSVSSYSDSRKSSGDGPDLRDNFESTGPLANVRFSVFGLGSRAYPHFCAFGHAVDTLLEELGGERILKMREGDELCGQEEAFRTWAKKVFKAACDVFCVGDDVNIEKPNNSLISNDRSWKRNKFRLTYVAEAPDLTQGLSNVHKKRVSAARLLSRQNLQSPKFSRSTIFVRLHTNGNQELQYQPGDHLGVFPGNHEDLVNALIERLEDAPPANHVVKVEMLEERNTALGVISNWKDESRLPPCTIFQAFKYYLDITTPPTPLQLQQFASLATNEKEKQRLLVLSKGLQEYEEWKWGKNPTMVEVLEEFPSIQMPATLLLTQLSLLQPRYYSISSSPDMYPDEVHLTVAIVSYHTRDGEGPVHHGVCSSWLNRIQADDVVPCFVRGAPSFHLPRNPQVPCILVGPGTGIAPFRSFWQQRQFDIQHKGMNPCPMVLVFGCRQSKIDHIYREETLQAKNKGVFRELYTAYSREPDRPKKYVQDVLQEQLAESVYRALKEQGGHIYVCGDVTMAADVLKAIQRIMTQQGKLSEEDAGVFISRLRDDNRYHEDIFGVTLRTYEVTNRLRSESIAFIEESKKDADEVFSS
Sequence of Cholinesterase (P06276 whole entry): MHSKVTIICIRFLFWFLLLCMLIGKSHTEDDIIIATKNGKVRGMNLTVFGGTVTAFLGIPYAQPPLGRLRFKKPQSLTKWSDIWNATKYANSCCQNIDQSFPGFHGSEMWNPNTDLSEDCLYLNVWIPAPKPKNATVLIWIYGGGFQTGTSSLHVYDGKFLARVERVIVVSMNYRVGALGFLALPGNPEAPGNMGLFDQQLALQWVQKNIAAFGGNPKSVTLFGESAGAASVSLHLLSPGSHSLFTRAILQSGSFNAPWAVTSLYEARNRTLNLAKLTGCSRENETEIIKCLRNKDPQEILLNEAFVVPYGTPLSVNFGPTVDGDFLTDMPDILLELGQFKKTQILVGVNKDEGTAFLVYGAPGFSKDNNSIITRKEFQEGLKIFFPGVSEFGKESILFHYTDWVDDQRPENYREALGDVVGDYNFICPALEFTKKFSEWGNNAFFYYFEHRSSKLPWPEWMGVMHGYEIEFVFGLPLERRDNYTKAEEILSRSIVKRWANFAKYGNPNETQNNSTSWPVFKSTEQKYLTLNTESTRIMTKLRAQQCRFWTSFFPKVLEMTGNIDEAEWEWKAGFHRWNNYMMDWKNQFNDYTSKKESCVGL
Sequence of Acetylcholinesterase (Homo sapiens, UniProt P22303) (P22303 whole entry): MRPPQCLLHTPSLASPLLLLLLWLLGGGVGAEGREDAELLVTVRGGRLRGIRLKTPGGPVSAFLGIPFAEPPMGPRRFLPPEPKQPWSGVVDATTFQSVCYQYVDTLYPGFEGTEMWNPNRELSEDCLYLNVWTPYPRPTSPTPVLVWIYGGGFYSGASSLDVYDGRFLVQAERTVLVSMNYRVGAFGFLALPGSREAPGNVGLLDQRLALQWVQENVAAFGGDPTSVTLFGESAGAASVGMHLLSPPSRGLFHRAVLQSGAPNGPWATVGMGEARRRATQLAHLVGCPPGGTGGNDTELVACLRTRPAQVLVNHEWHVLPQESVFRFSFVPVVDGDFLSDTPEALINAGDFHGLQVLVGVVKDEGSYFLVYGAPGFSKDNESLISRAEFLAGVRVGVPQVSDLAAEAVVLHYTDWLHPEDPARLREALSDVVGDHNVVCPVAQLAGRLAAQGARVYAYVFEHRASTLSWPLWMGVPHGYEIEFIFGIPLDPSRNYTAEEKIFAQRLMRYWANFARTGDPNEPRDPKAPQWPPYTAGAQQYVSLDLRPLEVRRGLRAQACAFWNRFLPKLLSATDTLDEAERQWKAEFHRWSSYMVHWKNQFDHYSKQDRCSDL
Sequence of Acetylcholinesterase (Electrophorus electricus, UniProt O42275) (O42275 whole entry): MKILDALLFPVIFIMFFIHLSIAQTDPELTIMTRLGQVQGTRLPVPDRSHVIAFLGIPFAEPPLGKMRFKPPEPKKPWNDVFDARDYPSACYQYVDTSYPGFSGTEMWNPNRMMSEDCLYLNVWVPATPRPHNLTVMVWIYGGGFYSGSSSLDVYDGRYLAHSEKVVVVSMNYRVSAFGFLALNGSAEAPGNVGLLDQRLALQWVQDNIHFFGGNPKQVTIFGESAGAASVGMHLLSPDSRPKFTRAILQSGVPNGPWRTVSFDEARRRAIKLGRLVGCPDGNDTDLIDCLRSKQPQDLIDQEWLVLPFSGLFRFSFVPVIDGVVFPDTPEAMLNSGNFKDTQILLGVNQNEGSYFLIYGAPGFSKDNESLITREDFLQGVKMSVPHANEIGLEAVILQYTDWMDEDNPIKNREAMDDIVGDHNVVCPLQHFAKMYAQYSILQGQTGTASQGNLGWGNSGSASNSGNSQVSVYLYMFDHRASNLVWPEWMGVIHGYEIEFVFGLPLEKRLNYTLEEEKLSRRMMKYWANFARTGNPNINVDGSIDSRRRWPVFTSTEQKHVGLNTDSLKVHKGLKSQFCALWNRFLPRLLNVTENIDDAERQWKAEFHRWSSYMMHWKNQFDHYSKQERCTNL

Compound: Cl.Cl.N[C@@H](Cc1c[nH]c2ccccc12)C(=O)NCCCCCCCNc1c2c(nc3ccccc13)CCCC2
- IC50 (Acetylcholinesterase [1]): 120 nM
- permeability [2]: Impermeable
- IC50 (Cholinesterase): 0.025 µM
- IC50 (CHO-K1): 248 µM
- IC50 (Nitric oxide synthase 1): 32 µM

Compound: N[C@@H](Cc1c[nH]c2ccccc12)C(=O)O [TRYPTOPHAN]
- IC50 (HepG2): 17000 µM

Compound: Cl.Cl.N[C@@H](Cc1c[nH]c2ccccc12)C(=O)NCCNc1c2c(nc3ccccc13)CCCC2
- IC50 (Acetylcholinesterase [1]): 730 nM
- permeability [2]: Impermeable
- IC50 (Cholinesterase): 0.056 µM
- IC50 (CHO-K1): 200 µM
- IC50 (Nitric oxide synthase 1): 33 µM

Compound: Cl.Cl.N[C@@H](Cc1c[nH]c2ccccc12)C(=O)NCCCCCNc1c2c(nc3ccccc13)CCCC2
- IC50 (Acetylcholinesterase [1]): 320 nM
- permeability [2]: Impermeable
- IC50 (Cholinesterase): 0.023 µM
- IC50 (CHO-K1): 83 µM
- IC50 (Nitric oxide synthase 1): 26 µM

Compound: COc1ccc2nc3c(c(NCCCCCCNC(=O)[C@@H](N)Cc4c[nH]c5ccccc45)c2c1)CCCC3
- IC50 (HepG2): 16 µM
- IC50 (Acetylcholinesterase [1]): 940 nM
- IC50 (Cholinesterase): 0.055 µM
- IC50 (CHO-K1): 23 µM
- IC50 (Nitric oxide synthase 1): 27 µM

Compound: COc1ccc2nc3c(c(NCCCCCCCNC(=O)[C@@H](N)Cc4c[nH]c5ccccc45)c2c1)CCCC3
- IC50 (HepG2): 5.6 µM
- IC50 (Acetylcholinesterase [1]): 980 nM
- IC50 (Cholinesterase): 0.078 µM
- IC50 (CHO-K1): 14 µM
- IC50 (Nitric oxide synthase 1): 26 µM

Compound: COc1ccc2nc3c(c(NCCCCNC(=O)[C@@H](N)Cc4c[nH]c5ccccc45)c2c1)CCCC3.Cl.Cl
- IC50 (Acetylcholinesterase [1]): 12000 nM
- permeability [2]: Impermeable
- IC50 (Cholinesterase): 0.52 µM
- IC50 (CHO-K1): 73 µM
- IC50 (Nitric oxide synthase 1): 27 µM

Compound: Cl.Cl.N[C@@H](Cc1c[nH]c2ccccc12)C(=O)NCCCCCCNc1c2c(nc3ccccc13)CCCC2
- IC50 (HepG2): 26 µM
- IC50 (Acetylcholinesterase [1]): 120 nM
- permeability [2]: Impermeable
- IC50 (Cholinesterase): 0.0039 µM
- IC50 (CHO-K1): 90 µM
- IC50 (Nitric oxide synthase 1): 33 µM

Compound: N[C@@H](Cc1c[nH]c2ccccc12)C(=O)NCCCCCCCCNc1c2c(nc3ccccc13)CCCC2
- IC50 (HepG2): 9.3 µM
- IC50 (Acetylcholinesterase [1]): 76 nM
- IC50 (Cholinesterase): 0.064 µM
- IC50 (CHO-K1): 47 µM
- IC50 (Nitric oxide synthase 1): 37 µM

Compound: O=C(CCCCCCNc1c2c(nc3cccc(Cl)c13)CCCC2)NCCc1c[nH]c2ccccc12
- IC50 (Acetylcholinesterase [1]): 0.008 nM
- IC50 (Cholinesterase): 0.0078 µM

Compound: CNC(=N)NCCC[C@H](N)C(=O)OC
- IC50 (Nitric oxide synthase 1): 4.1 µM

Compound: Cl.Cl.N[C@@H](Cc1c[nH]c2ccccc12)C(=O)NCCCCCCNc1c2c(nc3cc(Cl)ccc13)CCCC2
- IC50 (HepG2): 4.9 µM
- Activity [3]: Toxic
- Activity [4]: Non-Toxic
- Activity [5]: Toxic
- Kd (Acetylcholinesterase [6]): 4.82 µM
- Activity (Rattus norvegicus [7]): Active
- Activity (Rattus norvegicus [8]): Active
- IC50 (Acetylcholinesterase [1]): 6.3 nM
- Activity (Rattus norvegicus [9]): Dose-dependent effect
- Activity [10]: Non-Toxic
- Activity (Rattus norvegicus [11]): Active
- Activity [12]: Toxic
- permeability [2]: Permeable
- Activity (Rattus norvegicus [13]): Active
- MTD at 48 h [14]: 70 mg/kg
- IC50 (Cholinesterase): 0.0091 µM
- Activity [15]: Non-Toxic
- Activity [16]: Non-Toxic
- Activity (Rattus norvegicus [17]): Dose-dependent effect
- Activity (Rattus norvegicus [18]): Active
- Activity (Rattus norvegicus [19]): Active
- Activity (Rattus norvegicus [20]): Dose-dependent effect
- Activity [21]: Non-Toxic
- Activity (Rattus norvegicus [22]): Dose-dependent effect
- Activity (Rattus norvegicus [23]): Active
- Activity [24]: Toxic
- IC50 (CHO-K1): 21 µM
- IC50 (Nitric oxide synthase 1): 26 µM
- Activity [25]: Non-Toxic
- Activity [26]: Non-Toxic
- Activity [27]: Toxic
- Activity (Rattus norvegicus [28]): inactive

Compound: COc1ccc2nc3c(c(NCCCNC(=O)[C@@H](N)Cc4c[nH]c5ccccc45)c2c1)CCCC3.Cl.Cl
- IC50 (Acetylcholinesterase [1]): 1300 nM
- permeability [2]: Impermeable
- IC50 (Cholinesterase): 1.8 µM
- IC50 (CHO-K1): 95 µM
- IC50 (Nitric oxide synthase 1): 30 µM

Compound: COc1ccc2nc3c(c(NCCCCCCCCNC(=O)[C@@H](N)Cc4c[nH]c5ccccc45)c2c1)CCCC3
- IC50 (Acetylcholinesterase [1]): 1300 nM
- IC50 (Cholinesterase): 0.13 µM
- IC50 (CHO-K1): 43 µM
- IC50 (Nitric oxide synthase 1): 45 µM

Compound: COc1ccc2nc3c(c(NCCCCCNC(=O)[C@@H](N)Cc4c[nH]c5ccccc45)c2c1)CCCC3.Cl.Cl
- IC50 (Acetylcholinesterase [1]): 620 nM
- permeability [2]: Impermeable
- IC50 (Cholinesterase): 0.19 µM
- IC50 (CHO-K1): 46 µM
- IC50 (Nitric oxide synthase 1): 26 µM

Reference: ChEMBL document CHEMBL4390667, “Novel tacrine-tryptophan hybrids: Multi-target directed ligands as potential treatment for Alzheimer's disease” (Eur J Med Chem, 2019)
